Source: patent US9234168B2, “Compositions containing amino acids, phosphate and manganese and their uses” (The Henry M. Jackson Foundation for the Advancement of …, priority 2010, dated 2016)

What was measured:
bacterial cell culture = assay: Radioprotection of a bacterial cell culture; assay type: cell-based; details: agent alone
Source text: (§1) Applicants have shown that adenosine alone and Mn(II) alone are radioprotective […] for a mammalian cell line and for a bacterial cell culture.

mammalian cell line = assay: Radioprotection of a mammalian cell line; assay type: cell-based; details: agent alone
Source text: as §1

E. coli = assay type: cell-based, Escherichia coli; details: 3 kGy; TGY supplemented with 1 μM Mn^2+, 13 mM phosphate, 3 mM uridine or 384 mM (3%) DMSO individually
Procedure: FIG. 3 depicts the survival curves of E. coli exposed to acute IR and grown in the presence of various supplements: TGY, standard peptide-rich growth medium; DMSO, dimethyl sulfoxide; UMnP, 3 mM uridine/1 μM Mn^2+/13 mM PiB (phosphate buffer).
Individually and in combination, the radioprotective properties of Mn^2+, phosphate, uridine and DMSO were determined using E. coli grown in TGY medium; TGY is a peptide-rich medium based on yeast extract, and contains approximately 200 nM Mn.

Row | Compound | radioprotection of a bacterial cell culture (bacterial cell culture) | radioprotection of a mammalian cell line (mammalian cell line) | increase of the resistance of E. coli (E. coli)
1 | [Mn+2] [Mn^2+] | radioprotective | radioprotective | did not increase the resistance
2 | Nc1ncnc2c1ncn2[C@@H]1O[C@H](CO)[C@@H](O)[C@H]1O [adenosine] | radioprotective | radioprotective | –
3 | phosphate | – | – | 800 times
4 | C[S+](C)[O-] [DMSO, dimethyl sulfoxide] | – | – | 50 times
5 | O=c1ccn([C@@H]2O[C@H](CO)[C@@H](O)[C@H]2O)c(=O)[nH]1 [uridine] | – | – | 50 times
